Experiments:
[1] = target: Alpha-2A adrenergic receptor (Homo sapiens) (UniProt P08913); conditions: Compound concentration 10.0 uM
[2] = target: 5-hydroxytryptamine receptor 1A (Homo sapiens) (UniProt P08908); conditions: Compound concentration 10.0 uM
[3] = target: Kappa-type opioid receptor (Homo sapiens) (UniProt P41145); conditions: Compound concentration 10.0 uM
[4] = target: Beta-3 adrenergic receptor (Homo sapiens) (UniProt P13945); conditions: Compound concentration 10.0 uM
[5] = target: 5-hydroxytryptamine receptor 1B (Homo sapiens) (UniProt P28222); conditions: Compound concentration 10.0 uM
[6] = target: Histamine H3 receptor (Homo sapiens) (UniProt Q9Y5N1); conditions: Compound concentration 10.0 uM
[7] = target: Beta-2 adrenergic receptor (Homo sapiens) (UniProt P07550); conditions: Compound concentration 10.0 uM
[8] = target: 5-hydroxytryptamine receptor 1D (Homo sapiens) (UniProt P28221); conditions: Compound concentration 10.0 uM
[9] = target: Muscarinic acetylcholine receptor M1 (Homo sapiens) (UniProt P11229); conditions: Compound concentration 10.0 uM
Histamine H1 receptor [10] = target: T1, Histamine H1 receptor (Homo sapiens, UniProt P35367); conditions: Compound concentration 10.0 uM
[11] = target: T2, GABA-A receptor; anion channel (Rattus norvegicus) (UniProt O09028+P15431+P18506+P18508+P19969+P20236+P23574+P23576+P28471+P28473+P30191+P62813+P63079+P63138+Q91ZM7+Q9ES14); conditions: Compound concentration 10.0 uM
[12] = target: Sodium-dependent noradrenaline transporter (Homo sapiens) (UniProt P23975); conditions: Compound concentration 10.0 uM
[13] = target: Alpha-2C adrenergic receptor (Homo sapiens) (UniProt P18825); conditions: Compound concentration 10.0 uM
[14] = target: Muscarinic acetylcholine receptor M5 (Homo sapiens) (UniProt P08912); conditions: Compound concentration 10.0 uM
Rattus norvegicus = species on record: Rattus norvegicus; conditions: Compound concentration 10.0 uM
[15] = target: 5-hydroxytryptamine receptor 6 (Homo sapiens) (UniProt P50406); conditions: Compound concentration 10.0 uM
[16] = target: T3, 5-hydroxytryptamine receptor 2B (Homo sapiens, UniProt P41595); conditions: Compound concentration 10.0 uM
[17] = target: Histamine H4 receptor (Homo sapiens) (UniProt Q9H3N8); conditions: Compound concentration 10.0 uM
[18] = target: 5-hydroxytryptamine receptor 2C (Homo sapiens) (UniProt P28335); conditions: Compound concentration 10.0 uM
[19] = target: T4, Sigma non-opioid intracellular receptor 1 (Homo sapiens, UniProt Q99720); test: GPCRScan assay: inhibition of Sigma 1; set-up: radioligand conc. used [nm] 4.0 – 5.0, parental cells HEKT
[20] = target: Histamine H2 receptor (Homo sapiens) (UniProt P25021); conditions: Compound concentration 10.0 uM
[21] = target: 5-hydroxytryptamine receptor 7 (Homo sapiens) (UniProt P34969); conditions: Compound concentration 10.0 uM
[22] = target: Muscarinic acetylcholine receptor M2 (Homo sapiens) (UniProt P08172); conditions: Compound concentration 10.0 uM
[23] = target: D(1B) dopamine receptor (Homo sapiens) (UniProt P21918); conditions: Compound concentration 10.0 uM
[24] = target: Alpha-2B adrenergic receptor (Homo sapiens) (UniProt P18089); conditions: Compound concentration 10.0 uM
[25] = target: D(3) dopamine receptor (Homo sapiens) (UniProt P35462); conditions: Compound concentration 10.0 uM
[26] = target: 5-hydroxytryptamine receptor 5A (Homo sapiens) (UniProt P47898); conditions: Compound concentration 10.0 uM
[27] = target: Delta-type opioid receptor (Homo sapiens) (UniProt P41143); conditions: Compound concentration 10.0 uM
[28] = target: Mu-type opioid receptor (Homo sapiens) (UniProt P35372); conditions: Compound concentration 10.0 uM
Histamine H1 receptor [29] = target: T1, Histamine H1 receptor; test: GPCRScan assay: inhibition of H1; set-up: radioligand conc. used [nm] 0.6 – 2.0, parental cells stable HEK
[30] = target: T2, GABA-A receptor; anion channel (Rattus norvegicus); conditions: Compound concentration 10.0 uM; remark: listed apart in the source
[31] = target: T5, Sodium-dependent serotonin transporter (Homo sapiens, UniProt P31645); conditions: Compound concentration 10.0 uM
[32] = target: 5-hydroxytryptamine receptor 1E (Homo sapiens) (UniProt P28566); conditions: Compound concentration 10.0 uM
[33] = target: D(2) dopamine receptor (Homo sapiens) (UniProt P14416); conditions: Compound concentration 10.0 uM
[34] = target: T3, 5-hydroxytryptamine receptor 2B; test: GPCRScan assay: inhibition of 5-HT2B; set-up: radioligand conc. used [nm] 1.0 – 2.0, parental cells stable HEK
[35] = target: T5, Sodium-dependent serotonin transporter; test: GPCRScan assay: inhibition of SERT; set-up: radioligand conc. used [nm] 1.5 – 2.0, parental cells stable HEK
Target sequence in this assay (P31645 whole entry): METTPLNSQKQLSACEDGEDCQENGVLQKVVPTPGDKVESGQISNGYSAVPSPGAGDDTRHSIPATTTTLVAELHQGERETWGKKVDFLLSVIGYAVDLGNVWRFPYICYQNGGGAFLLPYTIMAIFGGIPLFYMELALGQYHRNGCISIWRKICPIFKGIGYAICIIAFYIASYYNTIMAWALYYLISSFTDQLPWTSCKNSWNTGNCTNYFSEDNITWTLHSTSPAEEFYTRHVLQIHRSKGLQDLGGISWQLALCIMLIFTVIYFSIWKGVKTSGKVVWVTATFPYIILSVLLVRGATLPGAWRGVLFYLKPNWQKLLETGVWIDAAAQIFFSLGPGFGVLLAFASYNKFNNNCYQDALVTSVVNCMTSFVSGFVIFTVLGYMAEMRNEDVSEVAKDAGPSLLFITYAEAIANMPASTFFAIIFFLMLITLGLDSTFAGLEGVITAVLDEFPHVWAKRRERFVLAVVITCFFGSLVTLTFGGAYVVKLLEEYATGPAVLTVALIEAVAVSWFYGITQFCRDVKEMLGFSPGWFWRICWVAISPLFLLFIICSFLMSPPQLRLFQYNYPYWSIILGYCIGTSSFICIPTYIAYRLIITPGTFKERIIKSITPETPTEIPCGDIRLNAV

[36] = target: Sodium-dependent dopamine transporter (Homo sapiens) (UniProt Q01959); conditions: Compound concentration 10.0 uM
[37] = target: Alpha-1D adrenergic receptor (Homo sapiens) (UniProt P25100); conditions: Compound concentration 10.0 uM
[38] = target: Alpha-1A adrenergic receptor (Homo sapiens) (UniProt P35348); conditions: Compound concentration 10.0 uM
[39] = target: T4, Sigma non-opioid intracellular receptor 1; conditions: Compound concentration 10.0 uM
[40] = target: 5-hydroxytryptamine receptor 2A (Homo sapiens) (UniProt P28223); conditions: Compound concentration 10.0 uM
[41] = target: Beta-1 adrenergic receptor (Homo sapiens) (UniProt P08588); conditions: Compound concentration 10.0 uM
[42] = target: D(4) dopamine receptor (Homo sapiens) (UniProt P21917); conditions: Compound concentration 10.0 uM
[43] = target: Alpha-1B adrenergic receptor (Homo sapiens) (UniProt P35368); conditions: Compound concentration 10.0 uM
[44] = target: 5-hydroxytryptamine receptor 3A (Homo sapiens) (UniProt P46098); conditions: Compound concentration 10.0 uM

T1 sequence (P35367 whole entry): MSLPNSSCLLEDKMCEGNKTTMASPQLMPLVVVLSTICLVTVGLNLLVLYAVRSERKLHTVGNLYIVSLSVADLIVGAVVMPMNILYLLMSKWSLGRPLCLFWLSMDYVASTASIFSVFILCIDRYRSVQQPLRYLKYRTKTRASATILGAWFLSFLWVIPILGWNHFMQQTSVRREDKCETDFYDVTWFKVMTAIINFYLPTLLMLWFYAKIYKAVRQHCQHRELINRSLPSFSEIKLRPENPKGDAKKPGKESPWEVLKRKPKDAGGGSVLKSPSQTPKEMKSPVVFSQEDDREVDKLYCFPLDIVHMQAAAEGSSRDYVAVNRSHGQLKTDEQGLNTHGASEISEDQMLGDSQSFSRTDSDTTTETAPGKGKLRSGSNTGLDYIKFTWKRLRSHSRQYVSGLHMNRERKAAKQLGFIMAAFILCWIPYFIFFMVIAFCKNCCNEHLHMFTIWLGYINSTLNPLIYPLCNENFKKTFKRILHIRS
T3 sequence (P41595 whole entry): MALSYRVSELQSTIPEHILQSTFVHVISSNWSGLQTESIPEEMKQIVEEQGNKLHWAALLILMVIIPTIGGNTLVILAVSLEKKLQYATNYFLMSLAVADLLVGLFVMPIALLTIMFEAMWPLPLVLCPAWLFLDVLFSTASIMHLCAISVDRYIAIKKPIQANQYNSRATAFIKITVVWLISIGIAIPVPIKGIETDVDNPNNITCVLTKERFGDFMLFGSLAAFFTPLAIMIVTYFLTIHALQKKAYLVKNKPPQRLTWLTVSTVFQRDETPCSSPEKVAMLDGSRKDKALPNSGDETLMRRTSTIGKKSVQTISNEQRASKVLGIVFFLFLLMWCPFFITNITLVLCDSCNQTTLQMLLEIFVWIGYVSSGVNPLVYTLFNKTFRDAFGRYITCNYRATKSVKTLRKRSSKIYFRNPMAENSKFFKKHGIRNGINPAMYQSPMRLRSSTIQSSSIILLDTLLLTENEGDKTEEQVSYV
T4 sequence (Q99720 whole entry): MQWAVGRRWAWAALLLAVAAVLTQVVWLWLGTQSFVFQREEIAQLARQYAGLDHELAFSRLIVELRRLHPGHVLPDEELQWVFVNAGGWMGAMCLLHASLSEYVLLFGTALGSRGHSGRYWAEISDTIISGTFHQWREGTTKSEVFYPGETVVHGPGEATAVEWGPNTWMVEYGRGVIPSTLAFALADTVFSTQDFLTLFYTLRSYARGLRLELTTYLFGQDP
Sequence of D(4) dopamine receptor (Homo sapiens) (P21917 whole entry): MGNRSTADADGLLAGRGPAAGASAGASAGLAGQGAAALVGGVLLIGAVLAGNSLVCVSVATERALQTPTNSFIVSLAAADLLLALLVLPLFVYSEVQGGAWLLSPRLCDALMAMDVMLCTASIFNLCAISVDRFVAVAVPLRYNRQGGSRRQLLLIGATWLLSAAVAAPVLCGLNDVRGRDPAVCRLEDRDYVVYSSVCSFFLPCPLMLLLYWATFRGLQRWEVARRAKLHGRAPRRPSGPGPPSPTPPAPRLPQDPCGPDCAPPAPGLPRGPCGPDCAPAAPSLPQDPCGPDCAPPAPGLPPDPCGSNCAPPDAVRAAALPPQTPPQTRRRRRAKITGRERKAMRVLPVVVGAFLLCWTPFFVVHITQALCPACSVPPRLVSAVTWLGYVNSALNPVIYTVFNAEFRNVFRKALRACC
Sequence of 5-hydroxytryptamine receptor 2C (Homo sapiens) (P28335 whole entry): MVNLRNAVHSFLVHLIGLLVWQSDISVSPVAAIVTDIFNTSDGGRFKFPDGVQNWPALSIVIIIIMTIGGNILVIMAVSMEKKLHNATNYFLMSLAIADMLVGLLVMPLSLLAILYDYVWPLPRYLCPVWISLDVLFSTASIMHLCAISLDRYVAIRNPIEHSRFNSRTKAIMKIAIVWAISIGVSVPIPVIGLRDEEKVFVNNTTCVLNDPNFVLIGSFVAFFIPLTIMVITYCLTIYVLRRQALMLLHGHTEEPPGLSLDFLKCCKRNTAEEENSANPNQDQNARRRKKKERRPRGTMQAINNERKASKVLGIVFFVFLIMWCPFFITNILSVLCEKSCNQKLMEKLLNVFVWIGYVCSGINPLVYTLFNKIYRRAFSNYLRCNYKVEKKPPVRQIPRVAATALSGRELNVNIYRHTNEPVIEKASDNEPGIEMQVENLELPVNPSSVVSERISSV
Sequence of Histamine H4 receptor (Homo sapiens) (Q9H3N8 whole entry): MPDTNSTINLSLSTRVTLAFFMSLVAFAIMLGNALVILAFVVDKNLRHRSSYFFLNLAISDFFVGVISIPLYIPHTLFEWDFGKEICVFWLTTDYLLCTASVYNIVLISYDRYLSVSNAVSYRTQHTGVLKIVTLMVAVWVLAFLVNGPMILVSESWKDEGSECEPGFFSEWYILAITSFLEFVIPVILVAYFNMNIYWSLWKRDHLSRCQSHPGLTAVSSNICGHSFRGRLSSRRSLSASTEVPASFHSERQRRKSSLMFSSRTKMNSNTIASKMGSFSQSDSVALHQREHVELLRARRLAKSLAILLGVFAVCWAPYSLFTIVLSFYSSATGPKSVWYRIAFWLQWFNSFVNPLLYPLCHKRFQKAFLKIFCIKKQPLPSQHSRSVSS
Sequence of 5-hydroxytryptamine receptor 6 (Homo sapiens) (P50406 whole entry): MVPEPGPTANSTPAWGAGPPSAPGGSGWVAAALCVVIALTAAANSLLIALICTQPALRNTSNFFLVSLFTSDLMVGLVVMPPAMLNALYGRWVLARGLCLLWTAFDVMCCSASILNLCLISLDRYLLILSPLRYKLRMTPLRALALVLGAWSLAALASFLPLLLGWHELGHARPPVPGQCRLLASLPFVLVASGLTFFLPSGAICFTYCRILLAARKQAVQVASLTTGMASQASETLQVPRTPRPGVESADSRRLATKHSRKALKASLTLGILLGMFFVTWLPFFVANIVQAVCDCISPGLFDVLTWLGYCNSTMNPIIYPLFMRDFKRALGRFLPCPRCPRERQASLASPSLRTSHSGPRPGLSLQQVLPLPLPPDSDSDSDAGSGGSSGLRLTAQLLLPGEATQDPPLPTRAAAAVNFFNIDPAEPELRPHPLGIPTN
Sequence of D(3) dopamine receptor (Homo sapiens) (P35462 whole entry): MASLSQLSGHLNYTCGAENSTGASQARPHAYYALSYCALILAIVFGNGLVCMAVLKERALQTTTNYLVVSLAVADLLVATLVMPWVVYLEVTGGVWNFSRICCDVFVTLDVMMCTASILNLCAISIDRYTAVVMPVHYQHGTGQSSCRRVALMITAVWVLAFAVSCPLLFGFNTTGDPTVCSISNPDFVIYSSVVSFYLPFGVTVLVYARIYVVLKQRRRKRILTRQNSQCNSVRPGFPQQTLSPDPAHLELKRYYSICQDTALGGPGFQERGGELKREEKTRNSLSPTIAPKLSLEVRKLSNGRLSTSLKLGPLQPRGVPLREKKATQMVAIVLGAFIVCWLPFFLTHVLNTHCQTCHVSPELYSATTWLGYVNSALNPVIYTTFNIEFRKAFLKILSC
Sequence of Alpha-2B adrenergic receptor (Homo sapiens) (P18089 whole entry): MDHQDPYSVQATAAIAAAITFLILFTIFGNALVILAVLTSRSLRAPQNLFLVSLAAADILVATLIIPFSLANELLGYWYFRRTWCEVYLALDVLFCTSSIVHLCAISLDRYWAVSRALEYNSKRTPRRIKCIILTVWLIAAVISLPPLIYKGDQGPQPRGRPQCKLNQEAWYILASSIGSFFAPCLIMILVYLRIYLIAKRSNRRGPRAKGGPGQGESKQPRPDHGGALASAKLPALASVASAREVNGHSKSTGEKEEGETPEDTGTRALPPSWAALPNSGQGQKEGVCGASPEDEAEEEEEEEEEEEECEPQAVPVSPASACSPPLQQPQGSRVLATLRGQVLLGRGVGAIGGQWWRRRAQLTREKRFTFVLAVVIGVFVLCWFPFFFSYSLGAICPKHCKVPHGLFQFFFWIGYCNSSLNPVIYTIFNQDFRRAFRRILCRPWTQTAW
Sequence of Alpha-2C adrenergic receptor (Homo sapiens) (P18825 whole entry): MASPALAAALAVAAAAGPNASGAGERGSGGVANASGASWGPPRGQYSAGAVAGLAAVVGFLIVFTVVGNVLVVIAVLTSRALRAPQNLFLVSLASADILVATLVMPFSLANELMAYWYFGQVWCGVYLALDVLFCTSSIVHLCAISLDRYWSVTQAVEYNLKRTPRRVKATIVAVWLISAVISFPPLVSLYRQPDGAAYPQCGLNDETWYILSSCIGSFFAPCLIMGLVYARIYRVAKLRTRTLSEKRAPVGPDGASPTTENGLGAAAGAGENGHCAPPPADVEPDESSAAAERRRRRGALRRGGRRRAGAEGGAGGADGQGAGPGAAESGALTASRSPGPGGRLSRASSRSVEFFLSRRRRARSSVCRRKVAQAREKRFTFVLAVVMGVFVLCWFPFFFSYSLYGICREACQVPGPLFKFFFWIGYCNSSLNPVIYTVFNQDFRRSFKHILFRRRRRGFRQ

COc1cccc(CNC(=O)c2nc3scc(CN(C)Cc4ccccc4)c3c(=O)[nH]2)c1 [T-26f]
263 nM: Ki [19]
1600 nM: Ki [34]
19 nM: Ki (Histamine H1 receptor [29])
831 nM: Ki [35]
inactive: inhibition [1] 27.3% | inhibition [2] 15.8% | inhibition [3] 14.2% | inhibition [4] -4.01% | inhibition [5] -2.26% | inhibition [6] 6.01% | inhibition [7] -6.8% | inhibition [8] -0.959% | inhibition [9] -8.97% | inhibition [11] 30.5% | inhibition [12] 19.6% | inhibition [13] 16.3% | inhibition [14] 2.67% | inhibition (Rattus norvegicus) 18.5% | inhibition [15] 3.76% | inhibition [17] 21% | inhibition [18] 13.5% | inhibition [20] 30.7% | inhibition [21] -5.94% | inhibition [22] 26.6% | inhibition [23] 2.81% | inhibition [24] 17.4% | inhibition [25] 20.1% | inhibition [26] 2.98% | inhibition [27] -5.54% | inhibition [28] 2.84% | inhibition [30] 32.4% | inhibition [32] -0.688% | inhibition [33] 12.5% | inhibition [36] -7.85% | inhibition [37] 12.7% | inhibition [38] 12.5% | inhibition [40] 14.9% | inhibition [41] 30.9% | inhibition [42] 14.4% | inhibition [43] 12.9% | inhibition [44] 20.4%
active: inhibition (Histamine H1 receptor [10]) 73.4% | inhibition [16] 51% | inhibition [31] 84% | inhibition [39] 80.7%

— ChEMBL document CHEMBL4507300 (2021)
